According to patent US12076357B2, “Preparations containing berry extracts for use in the prophylaxis and/or treatment of viral infections caused by Paramyxoviridae” (Evonik Operations GmbH, priority 2019, dated 2024):

Tested on: GFP-encoding measles virus
Assay: Measles virus replication, infected cells counted with PerkinElmer Ensight system (Part II)
Conditions: 75 μg/mL, quadruplets
Description: Vero-Slam cells were incubated with decreasing concentration of the solubilized test compounds. All concentrations were analyzed on three independent six-well plates or by independent six replicates on a black 96well plate (PerkinElmer). Cells were infected with GFP-encoding wild-type measles virus and incubated for two days. […] Part II: Two days after infection measles virus-infected cells and GFP expressing cells were directly counted using the PerkinElmer Ensight system with optical cell culture plates. The instrument was controlled by manual counting. Viral titers were calculated as infectious particles per mL.
However, in contrast to the previous experiments, infected cells were counted with the PerkinElmer Ensight system, since this system allows to quantify changes in viral titers on single cell level.
However, only non-toxic compound concentrations were applied.
The cells were subsequently infected with GFP-encoding measles virus, and GFP expressing cells were quantified with the Perkin Elmer Ensight reader. All infections were performed in triplicate assays.

## C[C@@H]1O[C@@H](OC[C@H]2O[C@@H](Oc3cc4c(O)cc(O)cc4[o+]c3-c3cc(O)c(O)c(O)c3)[C@H](O)[C@@H](O)[C@@H]2O)[C@H](O)[C@H](O)[C@H]1O [D3R, delphinidin 3-rutinoside]
  number of infected cells: reduced the number of infected cells
